Test results published in US20170009266A1, “PROCESS FOR THE ATTACHMENT OF A GALNAC MOIETY COMPRISING A (HETERO)ARYL GROUP TO A GLCNAC MOIETY, AND PRODUCT OBTAINED THEREBY” (SYNAFFIX B.V., priority 2014, published 2017).
Where a chain is given by its changes, count along the chain named.

Tests used:
Gal-T1(Y289M,C342T) = target: T1, Gal-T1(Y289M,C342T) (Bos taurus, UniProt P08037, C342T/Y289M); test: Glycosyltransfer to trimmed trastuzumab with Gal-T1(Y289M,C342T) expressed in CHO; type: biochemical, bovine; conditions: trimmed trastuzumab 10 mg/mL; UDP derivative 5 mM; enzyme 1.0 mg/mL; pH 8.0, 30° C. overnight
T1 construct: host or cells: CHO K1
T1 sequence (P08037 74-402 V158I/P187L/I205M/L206V/Y289M/C342T): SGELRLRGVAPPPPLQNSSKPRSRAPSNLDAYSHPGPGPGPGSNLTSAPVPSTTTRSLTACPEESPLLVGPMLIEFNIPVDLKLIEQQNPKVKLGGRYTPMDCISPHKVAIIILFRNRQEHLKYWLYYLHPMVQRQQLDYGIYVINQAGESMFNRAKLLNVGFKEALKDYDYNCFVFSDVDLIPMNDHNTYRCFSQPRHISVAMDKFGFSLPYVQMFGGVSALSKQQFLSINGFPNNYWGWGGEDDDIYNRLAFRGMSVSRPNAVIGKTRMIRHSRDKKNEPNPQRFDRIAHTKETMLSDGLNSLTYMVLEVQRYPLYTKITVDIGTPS
Experimental: (§1) A solution of 20 μg (modified) IgG was incubated for 1 hour at 37° C. with Fabricator™ (commercially available from Genovis, Lund, Sweden) (1.25 U/μL) in phosphate-buffered saline (PBS) pH 6.6 in a total volume of 10 μL. Fabricator™-digested samples were washed trice with milliQ using an Amicon Ultra-0.5, Ultracel-10 Membrane (Millipore) resulting in a final sample volume of approximately 40 μL. The Fc/2 fragment was analyzed by electrospray ionization time-of-flight (ESI-TOF) on a JEOL AccuTOF. Deconvoluted spectra were obtained using Magtran software.
(§2) A set of Gal-T 1 mutants encoding residues 74-402 of bovine Gal-T 1 were transiently expressed in CHO K1 cells by Evitria (Zurich, Switzerland) which include the Gal-T1 single mutants Y289L (represented by SEQ ID NO: 26), Y289F (represented by SEQ ID NO: 27), Y289M (represented by SEQ ID NO: 28), Y289V (represented by SEQ ID NO: 29), Y289A (represented by SEQ ID NO: 30), and Y289G (represented by SEQ ID NO: 31), and the Gal-T1 double mutants Y289L,C342T (represented by SEQ ID NO: 32), and Y289M,C342T (represented by SEQ ID NO: 33). The mutants were purified using a cation exchange column (Source 15S HR16/10 column, GE Healthcare) as described above. Purified proteins were analyzed by SDS-PAGE. […]

Gal-T1(Y289L,C342T) = target: T2, Gal-T1(Y289L,C342T) (Bos taurus, UniProt P08037, C342T/Y289L); test: Glycosyltransfer to trimmed trastuzumab with Gal-T1(Y289L,C342T) expressed in CHO; type: biochemical, bovine; conditions: trimmed trastuzumab 10 mg/mL; UDP derivative 1 mM; enzyme 1.0 mg/mL; pH 8.0, 30° C. overnight
T2 construct: host or cells: CHO K1
T2 sequence (P08037 74-402 V158I/P187L/I205M/L206V/Y289L/C342T): T1 sequence (P08037 74-402 V158I/P187L/I205M/L206V/Y289M/C342T) with M216L
Experimental: as §1, §2

β4Gal-T1 = target: T3, β4Gal-T1 (Bos taurus, UniProt P08037); conditions: native enzyme; cited from earlier work
T3 sequence (P08037 1-402): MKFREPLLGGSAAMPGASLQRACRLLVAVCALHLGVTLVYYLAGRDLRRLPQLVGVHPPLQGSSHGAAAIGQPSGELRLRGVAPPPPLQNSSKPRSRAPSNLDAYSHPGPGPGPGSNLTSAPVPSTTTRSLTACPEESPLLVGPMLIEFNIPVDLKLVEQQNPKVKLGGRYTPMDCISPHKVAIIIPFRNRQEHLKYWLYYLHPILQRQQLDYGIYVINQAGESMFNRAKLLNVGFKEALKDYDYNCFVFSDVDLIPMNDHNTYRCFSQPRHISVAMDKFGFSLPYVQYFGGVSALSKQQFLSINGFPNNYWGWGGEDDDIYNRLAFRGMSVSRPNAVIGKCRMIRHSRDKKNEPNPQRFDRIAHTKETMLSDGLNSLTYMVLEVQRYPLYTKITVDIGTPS

β4Gal-T1(Y289L) = target: T4, β4Gal-T1(Y289L) (Bos taurus, UniProt P08037, Y289L); conditions: GlcNAc acceptor; cited from earlier work
T4 sequence (P08037 1-402 Y289L): T3 sequence (P08037 1-402) with Y289L

β(1,4)-Gal-T1(Y289L) = target: T5, β(1,4)-Gal-T1(Y289L) (Bos taurus, UniProt P08037, I205M/L206V/P187L/V158I/Y289L); test: Glycosyltransfer of UDP-galactosamine derivatives to trimmed trastuzumab with Gal-T1(Y289L) expressed in E. coli, mass spectral analysis; type: biochemical, bovine; conditions: trimmed trastuzumab 10 mg/mL, pH 8.0, 30° C. overnight, reduced sample
T5 construct: made in house; host or cells: E. coli
T5 sequence (P08037 1-402 V158I/P187L/I205M/L206V/Y289L): T3 sequence (P08037 1-402) with V158I, P187L, I205M, L206V, Y289L
Experimental: General Protocol for Glycosyltransfer of Galactose Derivative UDP-GalNAz 21-24 with Gal-T1(Y289L) (Expressed in E. coli).
Enzymatic introduction of UDP-Gal derivatives 21-24 onto deglycosylated trastuzumab was effected with a mutant of bovine β(1,4)-galactosyltransferase [β(1,4)-Gal-T1(Y289L)] (expressed in E. coli). The deglycosylated trastuzumab (10 mg/mL) was incubated with the appropriate UDP-galactose derivative (0.4 mM) and β(1,4)-Gal-T1(Y289L) (1 mg/mL) in 10 mM MnCl2 and 25 mM Tris-HCl pH 8.0 for 16 hours at 30° C.
Next, the functionalized trastuzumab was incubated with protein A agarose (40 μL per mg IgG) for 2 hours at 4° C. The protein A agarose was washed three times with PBS and the IgG was eluted with 100 mM glycine-HCl pH 2.7. The eluted IgG was neutralized with 1 M Tris-HCl pH 8.0 and concentrated and washed with PBS using an Amicon Ultra-0.5, Ultracel-10 Membrane (Millipore) to a concentration of 15-20 mg/mL.
Trimmed trastuzumab (10 mg/mL, 3.3 nmol), obtained by Endo S treatment of trastuzumab, was incubated with UDP-galactosamine variant 21 (2.5 mM) and β(1,4)-Gal-T1(Y289L) (0.68 mg/mL, 45 μL) in 10 mM MnCl2 and 25 mM Tris-HCl pH 8.0 at 30° C. overnight.
Trimmed trastuzumab (10 mg/mL, 1.3 nmol), obtained by Endo S treatment of trastuzumab, was incubated with UDP-galactosamine variant 22 (4 mM) and β(1,4)-Gal-T1(Y289L) (1.4 mg/mL, 10 μL) in 10 mM MnCl2 and 25 mM Tris-HCl pH 8.0 at 30° C. overnight. Mass spectral analysis of the reduced sample indicated the formation of the product (49750.9 Da, approximately 80% of total heavy chain), resulting from galactosamide furan-2-carboxyl acid transfer to core GlcNAc(Fuc) substituted trastuzumab heavy chain as shown in FIG. 9.
Trimmed trastuzumab (10 mg/mL, 6.6 nmol), obtained by Endo S treatment of trastuzumab, was incubated with the 4-azido-3,5-difluorobenzoyl derivative of UDP-galactosamine (23, 7 mM) and β(1,4)-Gal-T1(Y289L) (2 mg/mL) in 10 mM MnCl2 and 25 mM Tris-HCl pH 8.0 at 30° C. overnight. Mass spectral analysis of the reduced sample indicated the formation of a one major product (49813 Da, approximately 90% of total heavy chain), resulting from transfer of 23 to core GlcNAc(Fuc)-substituted trastuzumab heavy chain.
Trimmed trastuzumab (10 mg/mL, 1.3 nmol), obtained by Endo S treatment of trastuzumab, was incubated with UDP-galactosamine variant 24 (4 mM) and (3(1,4)-Gal-T1(Y289L) (1.4 mg/mL, 10 μL) in 10 mM MnCl2 and 25 mM Tris-HCl pH 8.0 at 30° C. overnight.

[1] = UDP derivative 4 mM, enzyme 1.4 mg/mL

[N-]=[N+]=Nc1c(F)c(F)c(C(=O)N[C@H]2[C@@H](OP(=O)(O)OP(=O)(O)OC[C@H]3O[C@@H](n4ccc(=O)[nH]c4=O)[C@H](O)[C@@H]3O)O[C@H](CO)[C@H](O)[C@@H]2O)c(F)c1F [Compound 23b, 4-azido-2,3,5,6-tetrafluorobenzoyl Derivative of UDP-GalNH2]
conversion into product (Gal-T1(Y289M,C342T)): approximately 10%
conversion into product (Gal-T1(Y289L,C342T)): approximately 70%

CC(=O)N[C@H]1[C@@H](OP(=O)(O)OP(=O)(O)OC[C@H]2O[C@@H](n3ccc(=O)[nH]c3=O)[C@H](O)[C@@H]2O)O[C@H](CO)[C@H](O)[C@@H]1O [UDP-GalNAc]
efficiency of GalNAc transfer compared to Gal transfer from UDP-Gal (β4Gal-T1): 0.1%
efficiency of GalNAc transfer relative to β4Gal-T1/Gal transfer (β4Gal-T1(Y289L)): ~100%

O=C(NC1C(OP(=O)(O)OP(=O)(O)OCC2OC(n3ccc(=O)[nH]c3=O)C(O)C2O)OC(CO)C(O)C1O)c1ccco1 (stereo not shown) [Compound 22, Furylcarbonyl Derivative of UDP-GalNH2]
product, % of total heavy chain (β(1,4)-Gal-T1(Y289L); [1]): approximately 80%

O=C(NC1C(OP(=O)(O)OP(=O)(O)OCC2OC(n3ccc(=O)[nH]c3=O)C(O)C2O)OC(CO)C(O)C1O)c1cccnc1 (stereo not shown) [Compound 21, 3-pyridylcarbonyl Derivative of UDP-GalNH2]
product, % of total heavy chain (β(1,4)-Gal-T1(Y289L); UDP derivative 2.5 mM, enzyme 0.68 mg/mL): approximately 5%

O=C(NC1C(OP(=O)(O)OP(=O)(O)OCC2OC(n3ccc(=O)[nH]c3=O)C(O)C2O)OC(CO)C(O)C1O)C1CCCC1 (stereo not shown) [Compound 24, Cyclopentylcarbonyl Derivative of UDP-GalNH2]
product, % of total heavy chain (β(1,4)-Gal-T1(Y289L); [1]): approximately 90%
